Read-outs that look alike come from different tables or passages of the source.
Assays:
[1] = microsomes
Description: (§1) Determination of Metabolic Stability with Human Liver Microsomes
(§2) The metabolic degradation of the test compound is assayed at 37° C. with pooled human liver microsomes. The final incubation volume of 100 μl per time point contains TRIS buffer pH 7.6 (0.1 M), magnesium chloride (5 mM), microsomal protein (1 mg/ml) and the test compound at a final concentration of 1 μM. Following a short preincubation period at 37° C., the reactions are initiated by addition of beta-nicotinamide adenine dinucleotide phosphate, reduced form (NADPH, 1 mM) and terminated by transferring an aliquot into acetonitrile after different time points. Additionally, the NADPH-independent degradation is monitored in incubations without NADPH, terminated at the last time point. The [%] remaining test compound after NADPH independent incubation is reflected by the parameter c(control) (metabolic stability). The quenched incubations are pelleted by centrifugation (10,000 g, 5 min). An aliquot of the supernatant is assayed by LC-MS/MS for the amount of parent compound.
(§3) The half-life (t1/2 INVITRO) is determined by the slope of the semilogarithmic plot of the concentration-time profile. The intrinsic clearance (CL_[sequence]) is calculated by considering the amount of protein in the incubation: CL_[sequence] [μl/min/mg protein]=(In 2/(half-life [min]*protein content [mg/ml]))*1,000.

[2] = system: Neutrophil elastase activity in U937 cells; assay: Determination of neutrophil elastase activity in U937 cytosolic lysate preparation after incubation with test compound; format: cell-based; details: Homo sapiens, U-937, read-out: Reduction of NE-activity in U937 cells IC50
Description: Determination of Neutrophil Elastase Activity in U937 Cytosolic Lysate Preparation after Incubation with Test Compound
Optiplate 384F were purchased from PerkinElmer (Prod. No. #6007270). 24 well Nunclon cell culture plates (No. 142475) and 96 well plates (No. 267245) were from Nunc. Dimethylsulfoxid (DMSO) was from Sigma (Prod. No. D8418). Nonidet-P40 (NP40) was from USBiological (Prod. No. N3500)
Substrate, specific for Neutrophil elastase, was from Bachem (MeOSuc-Ala-Ala-Pro-Val-AMC; Prod. No. 1-1270).
Human neutrophil elastase was from Calbiochem (Prod. No. 324681)
Tris-buffer (100 mM Tris; 1M NaCL; pH 7.5)
Tris-buffer+HSA 0.1%; Human Serum Albumin from Calbiochem (Cat#. 126658)
Serine-protease buffer (20 mM Tris; 100 mM NaCL; pH 7.5)+0.1% HSA
Serine protease lysis buffer: 20 mM Tris-HCL; 100 mM NaCl pH 7.5; +0.2% Nonidet-P40;
PBS: phosphate buffered saline, without Ca and Mg, from Gibco
U937 from ECACC (Cat. No. 85011440) cultured in suspension at 37° C. and 5% CO2.
Cell density: 0.2-1 Mio. Cells/ml.
Medium: RPMI1640 GlutaMAX (No. 61870) with 10% FCS from Gibco
Cell Seeding and Treatment:
Compounds in 100% DMSO were diluted in Medium (—FCS) with 10% DMSO and further diluted according to the experiment planned.
20 μl of the compound solution was transferred in the respective wells of the 24 well plate and diluted with 2 ml cell suspension/well containing […] (final concentration of DMSO=0.1%). Compound dilution factor=100
Compounds (up to 7 concentrations) were tested in triplicates with 3 wells for the DMSO 0.1% control, incubated for 48 hours without medium change at 37° C., 5% CO2 and 95% relative humidity.
Cell Harvesting and Cell Lysate:
Transfer the cell suspension in 2.2 ml Eppendorf cups. Separate cells from medium by centrifugation (400×g; 5 min; RT); discard the supernatant. Resuspend in 1 ml PBS; centrifugation (400×g; 5 min; RT); wash cells twice with PBS. Add 100 μl Serin lysis buffer (ice cold) to the cell pellet; resuspend the pellet and store on ice for 15 minutes. Remove debris by centrifugation at 15000×g for 10 min at 4° C. Transfer 80-100 μl lysate supernatant in 96 well plate and store immediately at −80° C.
Neutrophil Elastase Activity Assay:
Frozen lysates were thawn at 37° C. for 10 minutes and stored on ice. Protein content was determined with Bradford protein assay. Lysates were diluted to 0.2-0.5 mg/ml protein in serine protease buffer+HSA.
Standard: NE (100 μg/ml stock solution in Tris-buffer; stored at −80° C.) was diluted in Tris-buffer+HSA to 750 ng/ml, and further serially diluted 1:2 for the standard curve.
Buffer, blank, standard and lysate samples were transferred into 384 well plate
Blank: 5 μl Tris-buffer+10 μl Tris-buffer+HSA+5 μl Substrate
Standard: 5 μl Tris-buffer+10 μl NE (diff. conc.)+5 μl Substrate
Lysate: 5 μl Tris-buffer+10 μl Lysat+[…] Substrate
The increase in fluorescence (Ex360 nm/Em 460 nm) is determined over 30 minutes with a Molecular Device Spectramax M5 Fluorescence Reader. Kinetic Reduction (Vmax units/sec); 4 vmax points. The amount of neutrophil elastase (ng/ml) is calculated using the standard curve and the Spectramax software. The result is interpolated to ng/mg lysate protein using excel formula functions. […] IC50 is calculated using Graphpad Prism; nonlinear fitting (log(inhibitor) vs. response—Variable slope).

[3] = Determination of metabolic stability with human liver microsomes; details: pooled human liver microsomes, 37° C., test compound 1 μM, NADPH
Description: as §1, §2, §3

IC50 [2] [nM]	In vitro stability in human liver microsome incubations t½ [3] [h]	Compound	In vitro stability in human liver microsome incubations t½ [1] [h]
–	–	N#C[C@H](Cc1ccc(-c2cc(C(=O)N3CCn4nccc4C3)co2)cc1F)NC(=O)[C@H]1N[C@@H]2CC[C@H]1C2 [Example 240]	1.83
–	–	N#Cc1ccc(-c2ccc(C[C@@H](C#N)NC(=O)[C@H]3N[C@H]4C[C@@H]3[C@@H]3C[C@@H]34)c(F)c2)s1 [Example 40]	>2.17
2	2.17	N#C[C@H](Cc1ccc(N2CC3CCN(C4CCOC4)C3C2)cc1F)NC(=O)[C@H]1N[C@@H]2CC[C@H]1C2 (stereo partly drawn) [Example 348]	–
1.7	2.17	N#C[C@H](Cc1ccc(N2CCCN3CCCC3C2)cc1F)NC(=O)[C@H]1N[C@@H]2CC[C@H]1C2 (stereo partly drawn) [Example 271]	–

Source: patent US10238633B2, “Methods for treating pulmonary emphysema using substituted 2-Aza-bicyclo[2.2.1]heptane-3-carboxylic acid (benzyl-cyano-methyl)-amides inhibitors of Cathepsin C” (Boehringer Ingelheim International GmbH, priority 2013, dated 2019)
